ChEMBL document CHEMBL4622979, “Non-rigid Diarylmethyl Analogs of Baloxavir as Cap-Dependent Endonuclease Inhibitors of Influenza Viruses” (J Med Chem, 2020)

Tests used:
[1] = MRTlast in CD1 mouse trachea assessed as (12aR)-12-(Diphenylmethyl)-7-hydroxy-3,4,12,12a-tetrahydro-1H-[1,4]oxazino[3,4-c]pyrido[2,1-f ][1,2,4]triazine-6,8-dione level at 15 mg/kg, po administered as single dose measured up to 24 hrs by LC-MS/MS analysis; assay type: ADME, organism-based; conditions: in vivo
[2] = Tmax in CD1 mouse trachea assessed as (12aR)-12-(Diphenylmethyl)-7-hydroxy-3,4,12,12a-tetrahydro-1H-[1,4]oxazino[3,4-c]pyrido[2,1-f ][1,2,4]triazine-6,8-dione level at 15 mg/kg, po administered as single dose measured up to 24 hrs by LC-MS/MS analysis; assay type: ADME, organism-based; conditions: in vivo
[3] = AUCinfinity in CD1 mouse plasma assessed as (12aR)-12-(Diphenylmethyl)-7-hydroxy-3,4,12,12a-tetrahydro-1H-[1,4]oxazino[3,4-c]pyrido[2,1-f ][1,2,4]triazine-6,8-dione level at 15 mg/kg, po administered as single dose measured up to 24 hrs by LC-MS/MS analysis; assay type: ADME, organism-based; parameters: dose 15 mg/kg, time infinity, route oral; conditions: in vivo
[4] = Tmax in CD1 mouse plasma assessed as (12aR)-12-(Diphenylmethyl)-7-hydroxy-3,4,12,12a-tetrahydro-1H-[1,4]oxazino[3,4-c]pyrido[2,1-f ][1,2,4]triazine-6,8-dione level at 15 mg/kg, po administered as single dose measured up to 24 hrs by LC-MS/MS analysis; assay type: ADME, organism-based; conditions: in vivo
[5] = Elimination rate constant in CD1 mouse heart assessed as (12aR)-12-(Diphenylmethyl)-7-hydroxy-3,4,12,12a-tetrahydro-1H-[1,4]oxazino[3,4-c]pyrido[2,1-f ][1,2,4]triazine-6,8-dione level at 15 mg/kg, po administered as single dose measured up to 24 hrs by LC-MS/MS analysis; assay type: ADME, organism-based; conditions: in vivo
[6] = Ratio of AUClast in CD1 mouse spleen to plasma assessed as (12aR)-12-(Diphenylmethyl)-7-hydroxy-3,4,12,12a-tetrahydro-1H-[1,4]oxazino[3,4-c]pyrido[2,1-f ][1,2,4]triazine-6,8-dione level at 15 mg/kg, po administered as single dose measured up to 24 hrs by LC-MS/MS analysis; assay type: ADME, organism-based; conditions: other tissue
[7] = Elimination rate constant in CD1 mouse spleen assessed as (12aR)-12-(Diphenylmethyl)-7-hydroxy-3,4,12,12a-tetrahydro-1H-[1,4]oxazino[3,4-c]pyrido[2,1-f ][1,2,4]triazine-6,8-dione level at 15 mg/kg, po administered as single dose measured up to 24 hrs by LC-MS/MS analysis; assay type: ADME, organism-based; conditions: in vivo
[8] = AUCinfinity in CD1 mouse small intestine assessed as (12aR)-12-(Diphenylmethyl)-7-hydroxy-3,4,12,12a-tetrahydro-1H-[1,4]oxazino[3,4-c]pyrido[2,1-f ][1,2,4]triazine-6,8-dione level at 15 mg/kg, po administered as single dose measured up to 24 hrs by LC-MS/MS analysis; assay type: ADME, organism-based; parameters: dose 15 mg/kg, route oral, time infinity; conditions: in vivo
[9] = MRTlast in CD1 mouse small intestine assessed as (12aR)-12-(Diphenylmethyl)-7-hydroxy-3,4,12,12a-tetrahydro-1H-[1,4]oxazino[3,4-c]pyrido[2,1-f ][1,2,4]triazine-6,8-dione level at 15 mg/kg, po administered as single dose measured up to 24 hrs by LC-MS/MS analysis; assay type: ADME, organism-based; conditions: in vivo
[10] = Cmax in CD1 mouse plasma assessed as (12aR)-12-(Diphenylmethyl)-7-hydroxy-3,4,12,12a-tetrahydro-1H-[1,4]oxazino[3,4-c]pyrido[2,1-f ][1,2,4]triazine-6,8-dione level at 15 mg/kg, po administered as single dose measured up to 24 hrs by LC-MS/MS analysis; assay type: ADME, organism-based; parameters: dose 15 mg/kg, route oral; conditions: in vivo
[11] = AUClast in CD1 mouse liver assessed as (12aR)-12-(Diphenylmethyl)-7-hydroxy-3,4,12,12a-tetrahydro-1H-[1,4]oxazino[3,4-c]pyrido[2,1-f ][1,2,4]triazine-6,8-dione level at 15 mg/kg, po administered as single dose measured up to 24 hrs by LC-MS/MS analysis; assay type: ADME, organism-based; conditions: in vivo
[12] = AUCinfinity in CD1 mouse lung assessed as (12aR)-12-(Diphenylmethyl)-7-hydroxy-3,4,12,12a-tetrahydro-1H-[1,4]oxazino[3,4-c]pyrido[2,1-f ][1,2,4]triazine-6,8-dione level at 15 mg/kg, po administered as single dose measured up to 24 hrs by LC-MS/MS analysis; assay type: ADME, organism-based; parameters: dose 15 mg/kg, route oral, time infinity; conditions: in vivo
[13] = Cmax in CD1 mouse small intestine assessed as (12aR)-12-(Diphenylmethyl)-7-hydroxy-3,4,12,12a-tetrahydro-1H-[1,4]oxazino[3,4-c]pyrido[2,1-f ][1,2,4]triazine-6,8-dione level at 15 mg/kg, po administered as single dose measured up to 24 hrs by LC-MS/MS analysis; assay type: ADME, organism-based; parameters: dose 15 mg/kg, route oral; conditions: in vivo
[14] = Acute toxicity in CD1 mouse assessed as effect on water consumption at 2000 mg/kg, po measured for 2 weeks; assay type: organism-based; conditions: in vivo, 336 h
[15] = Oral bioavailability in CD1 mouse assessed as (12aR)-12-(Diphenylmethyl)-7-hydroxy-3,4,12,12a-tetrahydro-1H-[1,4]oxazino[3,4-c]pyrido[2,1-f ][1,2,4]triazine-6,8-dione level at 15 mg/kg administered as single dose by LC-MS/MS analysis; assay type: ADME, organism-based; conditions: in vivo
[16] = Stability in human plasma assessed as parent compound remaining at 1 uM measured after 4 hrs by LC-MS/MS analysis; assay type: ADME, cell-free; conditions: read-out: Stability
[17] = Cmax in CD1 mouse brain assessed as (12aR)-12-(Diphenylmethyl)-7-hydroxy-3,4,12,12a-tetrahydro-1H-[1,4]oxazino[3,4-c]pyrido[2,1-f ][1,2,4]triazine-6,8-dione level at 15 mg/kg, po administered as single dose measured up to 24 hrs by LC-MS/MS analysis; assay type: ADME, organism-based; parameters: dose 15 mg/kg, route oral; conditions: in vivo
[18] = Half life in CD1 mouse blood assessed as baloxavir acid level at 15 mg/kg, po administered as single dose measured up to 24 hrs by LC-MS/MS analysis; assay type: ADME, organism-based; conditions: in vivo
[19] = Ratio of AUClast in CD1 mouse blood to plasma assessed as baloxavir acid level at 15 mg/kg, po administered as single dose measured up to 24 hrs by LC-MS/MS analysis; assay type: ADME, organism-based; conditions: in vivo
[20] = Cmax in CD1 mouse lung assessed as baloxavir acid level at 15 mg/kg, po administered as single dose by LC-MS/MS analysis; assay type: ADME, organism-based; parameters: dose 15 mg/kg, route oral; conditions: in vivo
[21] = Elimination rate constant in CD1 mouse small intestine assessed as baloxavir acid level at 15 mg/kg, po administered as single dose measured up to 24 hrs by LC-MS/MS analysis; assay type: ADME, organism-based; conditions: in vivo
[22] = AUCinfinity in CD1 mouse kidney assessed as baloxavir acid level at 15 mg/kg, po administered as single dose measured up to 24 hrs by LC-MS/MS analysis; assay type: ADME, organism-based; parameters: dose 15 mg/kg, time infinity, route oral; conditions: in vivo
[23] = AUCinfinity in CD1 mouse plasma assessed as baloxavir acid level at 15 mg/kg, po administered as single dose measured up to 24 hrs by LC-MS/MS analysis; assay type: ADME, organism-based; parameters: dose 15 mg/kg, route oral, time infinity; conditions: in vivo
[24] = Elimination rate constant in CD1 mouse blood assessed as baloxavir acid level at 15 mg/kg, po administered as single dose measured up to 24 hrs by LC-MS/MS analysis; assay type: ADME, organism-based; conditions: in vivo

`COC(=O)OCOc1c2n(ccc1=O)N(C(c1ccccc1)c1ccccc1)[C@@H]1COCCN1C2=O` showed an MRTlast [1] of 3.55 h, a Tmax [2] of 0.5 h and an AUC [3] of 3385 ng·h/mL. For the same compound, the Tmax [4] was 0.5 h, the Kel [5] was 0.41 h⁻¹ and the “Ratio AUC” value [6] was 1.38. For the same compound, the Kel [7] was 0.39 h⁻¹, the AUC [8] was 44252 ng·h/g and the MRTlast [9] was 1.28 h. For the same compound, the Cmax [10] was 1251 ng/mL, the AUClast [11] was 34818 ng·h/g and the AUC [12] was 8547 ng·h/g. The Cmax [13] was 24707 ng/g, the Activity [14] was “Non-Toxic” and the F [15] was 62.1%. The remaining at 4 h, 1 µM [16] was 8.1% and the Cmax [17] was 98 ng/g.
For `COC(=O)OCOc1c2n(ccc1=O)N([C@@H]1c3ccccc3SCc3c1ccc(F)c3F)[C@@H]1COCCN1C2=O` [BALOXAVIR MARBOXIL], the t1/2 [18] was 3.29 h, the “Ratio AUC” value [19] was 3.05 and the Cmax [20] was 1517 ng/g. It also gave a Kel [21] of 0.22 h⁻¹, an AUC [22] of 21287 ng·h/g and an AUC [23] of 558 ng·h/mL. It also gave a Kel [24] of 0.21 h⁻¹.
